“And” between values parts separate entries of the source, which are not always exact repeats. Equal entries are not always repeated. Square brackets hold non-standard residues; d marks the D form. Peptide text beside a SMILES is read from it.

The test system of test [1] is rat model of kidney bilateral ischemia reperfusion. The experiment in a line: Kidney bilateral ischemia reperfusion, tubular histological scores, Sprague-Dawley rats. In kind it is in vivo. How it is done:
Male Sprague-Dawley rats weighing 200-250 g at delivery were used (Charles River Laboratories, L'Arbresle, France). Animals were delivered to the laboratory at least 5 days before the experiments during which time they were acclimatized to laboratory conditions. This study included 3 groups of 11-12 rats each, as follow:
The protocol of warm renal ischemia was similar to that previously described (Pechman K R et al., 2009). Briefly, under general anesthesia (pentobarbital; 60 mg/kg, i.p. and atropine; 1 mg/kg, i.p.), both renal pedicles were isolated and clamped for 40 minutes using atraumatic clamps. After this time, clamps were released to start reperfusion. Animals were maintained at 37° C. using a thermo-regulated system (TCAT-2LV Controller, Physitemp Instruments, Clifton, N.J., USA) during the surgery. All the animals were sacrificed 24 hours after the release of both vascular clamps (reperfusion). Sham-operated animals underwent the same surgical procedure without clamping of the kidney vessels.
XG-104 or vehicle (0.9% NaCl) were administered into the tail vein (i.v.) at the dose of 2 mg/kg twenty minutes after the release of the second vascular clamp. Intravenous administrations into the tail vein were performed using the volume of 1 mL/kg.
After sacrifice, kidneys were removed, cleaned from all connective tissue and capsule and weighted on an electronic balance (VWR, France). One kidney was transferred in formalin solution 10% (Sigma Aldrich, France) for at least 24 h and then transferred in ethanol 70% for further histological analysis performed by Histalim (Montpellier, France). Right and left kidneys were randomly chosen. Kidney samples were fixed in 10% formalin during 72 hours, transferred into 70% ethanol, then embedded in paraffin blocks by Histalim (Montpellier, France). One longitudinal section (3 to 5 µm) was made per block. Kidney sections of paraffin embedded tissue were stained by hematoxylin and eosin (H&E). All the slides were digitalized at ×20 magnitude using Nanozoomer 2.0 HT from Hamamatsu (Hamamatsu, Japan). Each tissue section was examined histologically in a blinded manner to determine if tubular changes were present. The severity of each finding was then graded as follows:
Tubular damage score consisted of either degeneration/necrosis, tubular epithelial vacuolation, regeneration (basophil tubules), and tubular cast: […]

In test [2] the test system is JNK. The experiment in a line: JNK and c-Jun activation after Aβ42 stress in WT primary cortical neurons (immunoblot). In kind it is cell-based, mouse. How it is done: To this end, primary mouse cortical neuron cultures were exposed to either 2 μM or 25 μM of β-amyloid 1-42 (Aβ42) for 5 hours to induce Aβ42 cell stress. Neurons were pre-treated with or without 10 μM of the specific inhibitor of JNK, XG-104 (SEQ ID No. 172). Levels of phosphorylated JNK (pJNK), total JNK (JNK), cleaved PARP and Tubulin (control) were determined. The ratio of pJNK/JNK served as a measure of JNK activity. The level of cleaved protein PARP, which is known to increase during apoptosis, served as a measure of neuronal apoptosis.
To obtain primary cortical neuronal cultures, E15.5 mice embryos were dissected in PBS (Phosphate Buffered Saline) 6% glucose, on ice. Embryos cortices were minced into small pieces and treated with PBS glucose trypsin (Sigma Aldrich, Saint-Louis, USA) for 20 min at 37° C. Dissociated cortical cells were cultured in Neurobasal media complemented with B27, Glutamax and penicillin-streptomycin (Gibco). Neurons were cultured at 37° C., 5% CO2 on pre-coated with poly-L-lysin (Sigma Aldrich) petri dishes. Neurons were cultured to maturity (7 days) before use.
To induce […] stress 2 μM of Aβ1-42 (Thermo Fisher Scientific, Mass., USA) were used during 5 h on cortical neurons. Aβ42-1 inversed peptide (Thermo Fisher Scientific) was used as negative control. AP 1-42 and Aβ42-1 were dissolved in pure water and incubated at 37° C. for 48 h before use. […]
For immunoblot analysis cells were lysed on ice in a lysis buffer containing […] NaPi pH 7.8, […] NaCl, 1% Triton, 0.5% DOC, 0.1% SDS, 10% glycerol, 0.1 μM calyculin A, 1 mM Na3VO4 and 1× of a protease inhibitor cocktail (Sigma Aldrich). Lysates were sonicated and centrifugated 10 min at 15000 g at 4° C. The supernatant protein concentration was determined with the Micro BCA protein assay kit (Thermo Scientific). Thirty micrograms of proteins were resolved on SDS-PAGE and transferred onto nitrocellulose membrane. After blocking with TBS 5% skim milk, the membranes were probed with primary antibodies to JNK full, c-Jun, PKR, eIF2α (Santa Cruz, Danvers, USA), pJNK (Millipore, Billerica, USA), phosphor eIF2a (Thermo Fisher Scientific), PARP and tubulin (Cell Signaling, Danvers, USA). IR Dyes 800 and 700 (Rockland Immunochemical Inc, Gilbertsville, USA) antibodies were used as secondary antibodies. Blots were reveled with Odyssey imaging system (LI-COR Biosciences, Lincoln, USA).
(A western blot detects proteins with antibodies after separation by electrophoresis.)

[3] abbreviates: 2 mg/kg i.v. after reperfusion, 24 hours.
Where [4] appears, read: 2 mg/kg i.v. after reperfusion, 24 hours, listed as XG-104.
Where [5] appears, read: WT neurons, 10 μM, 1 h before 2 μM Aβ42, vs stressed WT neurons without peptides.

Turning to `CC(C)C[C@H](NC(=O)[C@H](CC(N)=O)NC(=O)[C@H](CC(C)C)NC(=O)[C@@H](NC(=O)[C@@H](C)NC(=O)[C@@H]1CCCN1C(=O)[C@H](CCCNC(=N)N)NC(=O)[C@@H](CCCCN)NC(=O)[C@@H]1CCCN1C(=O)[C@H](CCCNC(=N)N)NC(=O)[C@@H](CCCNC(=N)N)NC(=O)[C@H](CCCNC(=N)N)NC(=O)[C@H](CCCNC(=N)N)NC(=O)[C@H](CCC(N)=O)NC(=O)[C@@H](CCCNC(=N)N)NC(=O)[C@H](CCCNC(=N)N)NC(=O)[C@H](CCCCN)NC(=O)[C@H](CCCCN)NC(=O)[C@H](N)CCCNC(=N)N)[C@@H](C)O)C(=O)N[C@H](Cc1ccccc1)C(N)=O` [SEQ ID NO: 172, rKKRrQRRrRPkRPaTLNLf] (H-[dR]KKR[dR]QRR[dR]RP[dK]RP[dA]TLNL[dF]-NH2; N-terminus assumed), in test [1] (setting [3]), the “animals with degeneration/necrosis score of 1” value is 1/11 and the “total tubular score (mean)” value was determined as 6.00±1.26. Besides, in test [1] (setting [4]), the “animals with degeneration/necrosis score of 4” value was 1/12 and 1/11; the “mean basophilic tubule score” value was 1.33±0.65 and 1.73±0.47; the “mean tubular epithelial degeneration/necrosis score” value was 2.67±0.65 and 2.18±0.75. For the same molecule, the tubular damages entry in test [1] (2 mg/kg i.v., vs IR/Vehicle) is given as “significant beneficial effects on tubular damages”. The “decrease of JNK activity (pJNK/JNK)” value in test [2] (2 μM Aβ42 5 hours, 5 μM pre-treatment) is recorded as 29.2%. Moreover, the “decrease of JNK activity (pJNK/JNK)” value in test [2] (2 μM Aβ42 5 hours, 10 μM pre-treatment) worked out at 60%. For the same molecule, the “decrease of JNK activity (pJNK/JNK)” value in test [2] (25 μM Aβ42 5 hours, 5 μM pre-treatment) was 17.5%. Moreover, the “decrease of JNK activity (pJNK/JNK)” value in test [2] (25 μM Aβ42 5 hours, 10 μM pre-treatment) is on record as 59.6%. Besides, in test [2] (WT neurons, 10 μM, 1 h before 2 μM Aβ42), the JNK activation is on record as −60%. Further, in test [2] (setting [5]), the c-Jun expression is reported as −62% and the c-Jun phosphorylation was −29%.
